In patent US8895520B2, “Method for treating a human patent suffering from Myeloid Neoplasias using 5-aminoimidazole-4-carboxamide” (Universite Nice Sophia Antipolis, priority 2011, dated 2014):

Key:
AZA-S SKM1 cells [1] = assay: XTT cell metabolism assay in AZA-S SKM1 cells; type: cell-based, human; details: for cell metabolism (XTT) / inhibitory effect on cell metabolism in presence of Z-VAD-fmk: 24 h; for inhibitory effect on cell metabolism in presence of Z-VAD-fmk: 50 μM Z-VAD-fmk
Procedure: (§1) FIGS. 6 and 7 illustrate respectively the efficiency of acadesine in SKM1-S and SKM1-R cells. In FIG. 6, AZA-S SKM1 cells were incubated for 24 h with increased doses of ACA (acadesine). In FIG. 7, AZA-R SKM1 cells were incubated for 24 h with increased doses of ACA. Cell metabolism was then assessed by using the XTT assay in both assays. Results represent the mean+/−SEM of three independent experiments made in quadruplicates.
FIGS. 10 and 11 illustrate the efficacy of acadesine in AZA-S and AZA-R cells. […] For this experiment, AZA-S SKM1 cells were incubated for 24 h with 1 μM Azacitidine or 1 mM Acadesine in either the presence or the absence of 50 μM Z-VAD-fmk. Cell metabolism was assessed using the XTT assay. Results represent the mean+/−SEM of three independent experiments achieved in quadruplicates. […] For this experiment, AZA-R SKM1 cells were incubated for 24 h with 1 μM Azacitidine or 1 mM Acadesine in either the presence or the absence of 50 μM Z-VAD-fmk. Cell metabolism was assessed using the XTT assay. Results represent the mean+/−SEM of three independent experiments achieved in quadruplicates.
For the cell metabolism assessment, 15×10^3 cells were incubated in a 96-well plate for different times with various concentrations of Azacitidine in a final volume of 100 μL. After 16, 24 or 48 h, 50 μL of XTT reagent was added to each well. The absorbance of the formazan product, reflecting cell metabolism, was measured at […]. Each assay was performed in quadruplicate.
The cell metabolism assessment was made in an identical manner as described in example 3.

AZA-R SKM1 cells [2] = assay: cells; type: cell-based; details: Homo sapiens
Procedure: as §1
FIGS. 10 and 11 illustrate the efficacy of acadesine in AZA-S and AZA-R cells. […] For this experiment, AZA-S SKM1 cells were incubated for 24 h with 1 μM Azacitidine or 1 mM Acadesine in either the presence or the absence of 50 μM Z-VAD-fmk. Cell metabolism was assessed using the XTT assay. Results represent the mean+/−SEM of three independent experiments achieved in quadruplicates. […] For this experiment, AZA-R SKM1 cells were incubated for 24 h with 1 μM Azacitidine or 1 mM Acadesine in either the presence or the absence of 50 μM Z-VAD-fmk. Cell metabolism was assessed using the XTT assay. Results represent the mean+/−SEM of three independent experiments achieved in quadruplicates. […]
For the cell metabolism assessment, 15×10^3 cells were incubated in a 96-well plate for different times with various concentrations of Azacitidine in a final volume of 100 μL. […] The absorbance of the formazan product, reflecting cell metabolism, was measured at 490 nM. […]

AZA-S SKM1 cells [3] = assay: Caspase 3 / caspase 9 activity assay in AZA-S SKM1 cells; type: cell-based, human
Procedure: (§2) FIG. 1 illustrates AZA-induced apoptosis in AZA-SKM1 cells as assessed by caspase 3 assay. In this figure, cells were incubated for different times with 1 μM Azacitidine. Caspase activities were determined in quadruplicates using 0.2 mM Ac-DEVD-AMC as substrate.
(§3) FIG. 2 illustrates AZA-induced apoptosis in AZA-SKM1 cells as assessed by caspase 9 assay. In this figure, cells were incubated for different times with 1 μM Azacitidine. Caspase activities were determined in quadruplicates using 0.2 mM Ac-LEHD-AMC as substrate.
(§4) In this experiment, cells were incubated for 24 h with 1 μM Azacitidine or 1 mM ACA. Cell extracts were then prepared and caspase activities were determined in quadruplicates using 0.2 mM Ac-DEVD-AMC as substrate.
(§5) For these caspase assays, 10^6 cells/mL were incubated for different times at 37° C. with 1 μM Azacitidine. After stimulation, cells were lysed for 30 min at 4° C. Cellular extracts were incubated in 96-well plates with either Ac-DEVD-AMC (caspase 3) or Ac-LEHD-AMC (caspase 9) as substrates. Each experiment was performed in quadruplicates and repeated at least three times.

AZA-R SKM1 cells [4] = assay: Caspase 3 / caspase 9 activity assay in AZA-R SKM1 cells; type: cell-based, human
Procedure: as §2, §3, §4, §5

AZA-R SKM1 cells [5] = assay: Cathepsin B activity assay in AZA-R SKM1 cells; type: cell-based, human
Procedure: (§6) For this experiment cells were incubated for increasing times with 1 μM AZA. Cell extracts were prepared and Cathepsin B activity determined in quadruplicatesusing Z-RR-AMC as substrates. […] In this experiment cells were incubated for 24 h with 1 μM Azacitidine or 1 mM ACA. Cell extracts were prepared and Cathepsin B activity was determined in quadruplicates using Z-RR-AMC as substrate. For these Cathepsin B assays, 10^6 cells/mL were incubated for different times at 37° C. with 1 μM Azacitine. After stimulation, cells were lysed for 30 min at 4° C. Cellular extracts were incubated in 96-well plates with […] (Cathepsin B) as substrate. This experiment was performed in quadruplicates and repeated at least three times.

[6] = test system: bone marrow cells of 7 AZA-sensitive patients; assay: XTT cell metabolism assay on bone marrow cells of AZA-sensitive patients; type: cell-based, human; details: bone marrow cells of AZA-sensitive patients (n=7), 1 mM Acadesine
Procedure: For this experiment, bone marrow cells of 7 AZA-sensitive patients were treated with 1 μM Azacitidine or 1 mM Acadesine. Cell metabolism was assessed using the XTT assay. Results represent the mean+/−SEM of three independent experiments achieved in quadruplicates.
(§7) In the following examples, bone marrow samples were collected from 15 patients treated by Azacitidine. […] The diagnosis of MDS or AML was based on standard WHO criteria (Vardiman et al., Blood 2009). Patients were to receive Azacitidine at the FDA/EMEA approved schedule (75 mg/m^2/d, 7 d/4 weeks). Patients having received one or more than one cycle of Azacitidine and who had bone marrow evaluation after at least four cycles, or who died or progressed before completion of four cycles were considered evaluable (the last two groups were considered as treatment failures). Responses were scored according to IWG 2006 criteria for MDS and to Cheson et al. (JCO 2003) for AML.
(§8) Acadesine efficiency was next investigated on fifteen primary cell samples from MDS or AML patients treated or not by AZA. Samples from seven Azacitidine sensitive patients (FIG. 12) and eight samples from Azacitidine resistant patients were included in this experiment and analyzed by the XTT assay (FIG. 13). As previously described for AZA-R SKM1 cells, Acadesine was more efficient to kill cells from Azacitidine resistant patients.

[7] = test system: bone marrow cells of 8 AZA-resistant patients; assay: XTT cell metabolism assay on bone marrow cells of AZA-resistant patients; type: cell-based, human; details: 1 mM Acadesine
Procedure: For this experiment, bone marrow cells of 8 AZA-resistant patients were treated with 1 μM Azacitidine or 1 mM Acadesine. Cell metabolism was assessed using the XTT assay. Results represent the mean+/−SEM of three independent experiments achieved in quadruplicates.
as §7, §8

[8] = test system: AZA-resistant patient bone marrow cells; assay: LC3 I / LC3 II western blot on AZA-resistant patient bone marrow cells; type: cell-based, human; details: one Azacitidine resistant patient, 1 mM Acadesine, 24 h
Procedure: In this experiment LC3 I and LC3 II expression was assessed by Western-Blot on cell extracts prepared from AZA-resistant patient bone marrow cells incubated for 24 h with 1 mM Acadesine.
as §8

AZA-R SKM1 cells [9] = assay: PARP cleavage by western blot in AZA-R SKM1 cells; type: cell-based, human; details: 1 μM Azacitidine, 16 h
Procedure: (§9) In this experiment, PARP cleavage was assessed by western-blot on cell extracts prepared from AZA-S and AZA-R cells incubated for 16 h with 1 μM Azacitidine. For the Western Blot analysis, cells were first stimulated by 1 μM Azacitidine for the indicated times, then cells were harvested and lysed in buffer containing 1% Triton X-100 and supplemented with protease and phosphatase inhibitors (Roche Diagnostics) as previously described. Lysates were pelleted, and 50 μg of protein were analyzed by SDS-PAGE.

AZA-S SKM1 cells [10] = assay: Autophagy western blot (LC3-I/LC3-II, P-S6) in AZA-S SKM1 cells; type: cell-based, human; details: 1 μM AZA
Procedure: (§10) FIG. 4 illustrates increased basal autophagy and decreased AZA-mediated autophagy in AZA-R cells. In this experiment, cells were incubated for increasing times with 1 μM AZA. LC3-I and LC3-II, S6 ribosomal protein (P-S6), and its phosphorylated form were visualized by western blot.
as §9, with “For” for “In this experiment, PARP cleavage was assessed by western-blot on cell extracts prepared from AZA-S and AZA-R cells incubated for 16 h with 1 μM Azacitidine. For”

AZA-R SKM1 cells [11] = assay: Autophagy western blot (LC3-I/LC3-II, P-S6) in AZA-R SKM1 cells; type: cell-based, human; details: 1 μM AZA
Procedure: as §10
as §9, with “For” for “In this experiment, PARP cleavage was assessed by western-blot on cell extracts prepared from AZA-S and AZA-R cells incubated for 16 h with 1 μM Azacitidine. For”

AZA-S SKM1 cells [12] = assay: Cathepsin B activity assay in AZA-S SKM1 cells; type: cell-based, human; details: Azacitidine
Procedure: as §6

[13] = test system: high-risk Myelodysplasic syndrome (MDS) or acute myeloid leukemia (AML) patients; details: cited from earlier work

## NC(=O)c1ncn([C@@H]2O[C@H](CO)[C@@H](O)[C@H]2O)c1N [Acadesine, acadesine]
AZA-S SKM1 cells [1]; 1 mM Acadesine
  cell metabolism (XTT): drastically inhibited cell metabolism
  inhibitory effect on cell metabolism in presence of Z-VAD-fmk: independently of caspases
AZA-S SKM1 cells [1]; Homo sapiens, SKM-1, 24 h, XTT assay, read-out: half-maximal inhibition of cell metabolism
  IC50: 250 µM
AZA-R SKM1 cells [2]; SKM-1, 24 h, read-out: reduction of cell viability
  cytotoxicity at 1000 µM: 60%
AZA-R SKM1 cells [2]; SKM-1, AZA-R SKM1 cells, 24 h, XTT assay, read-out: half-maximal inhibition of cell metabolism
  IC50: 250 µM
AZA-S SKM1 cells [3]; 1 mM ACA, 24 h
  apoptosis (caspase activity, Ac-DEVD-AMC): does not induce apoptosis
AZA-R SKM1 cells [4]; 1 mM ACA, 24 h
  apoptosis (caspase activity, Ac-DEVD-AMC): does not induce apoptosis
AZA-R SKM1 cells [5]; 1 mM ACA, 24 h
  Cathepsin B activity: increase of Cathepsin B activity
[6]
  cell metabolism (XTT): inhibits cell metabolism
[7]
  cell metabolism (XTT): strongly inhibits cell metabolism
[8]
  induction of autophagy (conversion of LC3-I into LC3-II): induction of autophagy by Acadesine was confirmed

## Nc1ncn([C@@H]2O[C@H](CO)[C@@H](O)[C@H]2O)c(=O)n1 [Azacitidine]
AZA-S SKM1 cells [1]; 1 μM Azacitidine
  cell metabolism (XTT): efficiently reduced cell metabolism
  inhibitory effect on cell metabolism in presence of Z-VAD-fmk: reverted by Z-VAD-fmk
AZA-S SKM1 cells [3]; 1 μM Azacitidine, 8-16 h
  caspase 3 activation (hydrolysis of Ac-DEVD-AMC): induced
  caspase 9 activation (hydrolysis of LEHD-AMC): induced
AZA-S SKM1 cells [3]; 1 μM Azacitidine, 24 h
  caspase 3 activity (Ac-DEVD-AMC): induced caspase 3 activity
AZA-R SKM1 cells [4]; 1 μM Azacitidine
  caspase 3 activation (hydrolysis of Ac-DEVD-AMC): no caspase activities was induced
  caspase 9 activation (hydrolysis of LEHD-AMC): no caspase activities was induced
AZA-R SKM1 cells [4]; 1 μM Azacitidine, 24 h
  caspase 3 activity (Ac-DEVD-AMC): no increase
AZA-R SKM1 cells [9]
  cleavage of PARP (western blot): no AZA-mediated cleavage of PARP was detected
AZA-S SKM1 cells [10]
  ribosomal protein S6 phosphorylation (index of mTOR inhibition): inhibition of ribosomal protein S6 phosphorylation
AZA-S SKM1 cells [10]; increasing times
  LC3-II accumulation (autophagy): time-dependent accumulation of LC3-II
AZA-R SKM1 cells [11]
  ribosomal protein S6 phosphorylation (index of mTOR inhibition): inhibition of ribosomal protein S6 phosphorylation
AZA-R SKM1 cells [11]; increasing times
  LC3-II accumulation (autophagy): not further stimulated
AZA-S SKM1 cells [12]
  Cathepsin B activity: induces
AZA-R SKM1 cells [5]; 1 μM AZA, increasing times
  Cathepsin B activity: increased
[13]
  proportion of patients refractory: approximately 40%
